Laboratory results as given in ChEMBL document CHEMBL5036378, “Discovery of 5-Aryl-2,4-diaminopyrimidine Compounds as Potent and Selective IRAK4 Inhibitors” (ACS Med Chem Lett, 2022).

What was measured:
Mus musculus = test: Antiinflammatory activity in female BALB/c mouse assessed as inhibition of IL-1beta induced IL-6 levels at 75 mg/kg, po for 30 mins followed by IL-1beta administration and measured after 1.5 hrs by ELISA method; assay type: functional; conditions: time 2 hrs
[1] = Drug concentration in female BALB/c mouse plasma at 75 mg/kg, po incubated for 30 mins followed by IL-1beta administration and measured after 30 mins; assay type: ADME, organism-based; conditions: time 60 min, read-out: Drug uptake
THP-1 = test: Antiinflammatory activity against human THP-1 cells assessed as inhibition of LPS induced IL-23 production preincubated with compound for 1 hr followed by LPS stimulation and measured after 18 hrs by cell based ELISA method; assay type: functional
HUVEC [2] = test: Antiinflammatory activity against HUVEC cells assessed as inhibition of LPS induced IL-6 production measured by ELISA method; assay type: functional, cell-based; conditions: Homo sapiens
HUVEC [3] = test: Antiinflammatory activity against HUVEC cells assessed as inhibition of IL-1beta induced IL-6 production preincubated with compound for 1 hr followed by IL-1beta stimulation and measured after 12 hrs by cell based ELISA method; assay type: functional; conditions: Homo sapiens
Blood = test: Antiinflammatory activity against human whole blood assessed as inhibition of IL-1beta induced MIP-1beta production preincubated with compound for 1 hr followed by IL-1beta stimulation and measured after 12 hrs by cell based ELISA method; assay type: functional, tissue-based
[4] = Antiinflammatory activity against human monocyte derived dendritic cells assessed as inhibition of LPS induced IL-23 production preincubated with compound for 1 hr followed by LPS stimulation and measured after 18 hrs by cell based ELISA method; assay type: functional
[5] = target: T1, Mitogen-activated protein kinase kinase kinase 7 (Homo sapiens, UniProt O43318); test: Inhibition of TAK1 (unknown origin) in presence of MBP as substrate by ADP-Glo assay
T1 sequence (O43318 whole entry): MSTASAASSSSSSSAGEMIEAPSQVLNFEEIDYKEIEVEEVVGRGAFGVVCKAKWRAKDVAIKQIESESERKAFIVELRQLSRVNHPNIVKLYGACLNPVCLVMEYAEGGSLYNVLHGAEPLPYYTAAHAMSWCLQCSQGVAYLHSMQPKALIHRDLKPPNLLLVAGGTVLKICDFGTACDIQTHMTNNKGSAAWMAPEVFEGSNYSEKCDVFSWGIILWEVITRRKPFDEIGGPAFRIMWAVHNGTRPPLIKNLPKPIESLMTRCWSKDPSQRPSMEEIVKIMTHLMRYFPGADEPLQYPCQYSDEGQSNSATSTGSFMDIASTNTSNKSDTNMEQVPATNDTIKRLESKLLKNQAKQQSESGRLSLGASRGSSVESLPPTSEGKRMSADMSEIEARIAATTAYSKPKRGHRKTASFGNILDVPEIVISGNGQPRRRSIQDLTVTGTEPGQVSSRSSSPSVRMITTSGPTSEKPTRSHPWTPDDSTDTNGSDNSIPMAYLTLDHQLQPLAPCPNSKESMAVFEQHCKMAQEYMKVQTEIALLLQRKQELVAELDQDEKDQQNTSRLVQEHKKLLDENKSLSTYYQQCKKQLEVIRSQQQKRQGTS

[6] = target: T2, Interleukin-1 receptor-associated kinase 4 (Homo sapiens, UniProt Q9NWZ3); test: Inhibition of IRAK4 (unknown origin) in presence of MBP as substrate by ADP-Glo assay
T2 sequence (Q9NWZ3 whole entry): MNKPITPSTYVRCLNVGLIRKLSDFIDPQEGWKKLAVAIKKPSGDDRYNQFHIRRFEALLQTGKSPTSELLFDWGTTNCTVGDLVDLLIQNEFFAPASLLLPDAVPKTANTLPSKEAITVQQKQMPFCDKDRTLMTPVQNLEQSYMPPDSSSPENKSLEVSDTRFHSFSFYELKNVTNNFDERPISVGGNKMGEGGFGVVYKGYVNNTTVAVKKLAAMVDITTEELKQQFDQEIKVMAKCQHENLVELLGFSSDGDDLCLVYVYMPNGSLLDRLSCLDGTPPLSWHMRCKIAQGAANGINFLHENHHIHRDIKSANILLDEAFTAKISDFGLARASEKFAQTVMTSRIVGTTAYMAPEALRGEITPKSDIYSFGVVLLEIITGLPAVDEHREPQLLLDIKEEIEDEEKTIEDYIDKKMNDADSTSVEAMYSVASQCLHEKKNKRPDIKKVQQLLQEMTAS

Compound | IC50 (THP-1) [nM] | IC50 [5] [nM] | IC50 [6] [nM] | other results
NC(=O)[C@@H]1[C@H](Nc2nc(Nc3cccc(C(=O)N4CCCC4)c3)ncc2-c2cncc(F)c2)[C@H]2C=C[C@@H]1C2 |  |  |  | concentration at 1 h [1]: 2880 ng/mL
NC(=O)[C@@H]1[C@H](Nc2nc(Nc3ccc(OCCN4CCCC4)cc3)ncc2-c2cccnc2)[C@H]2C=C[C@@H]1C2 | 700 | 380 | 103 | 
CN1CCN(c2cc(Nc3ncc(-c4cccc(F)c4)c(N[C@H]4[C@@H](C(N)=O)[C@@H]5C=C[C@H]4C5)n3)ccn2)CC1 | 50 | 120 | 6 | 
Cc1cnc(Nc2cccc(C(=O)N3CCCC3)c2)nc1N[C@H]1[C@@H](C(N)=O)[C@@H]2C=C[C@H]1C2 | 100 |  |  | 
NC(=O)[C@@H]1[C@H](Nc2nc(Nc3cccc(C(=O)N4CCCC4)c3)ncc2-c2ccccc2)[C@H]2C=C[C@@H]1C2 | 220 | 170 |  | 
NC(=O)[C@@H]1[C@H](Nc2nc(Nc3ccc(C(=O)N4CCCC4)cc3)ncc2-c2cccnc2)[C@H]2C=C[C@@H]1C2 | 230 | 250 | 26 | 
NC(=O)[C@@H]1[C@H](Nc2nc(Nc3cccc(C(=O)N4CCCC4)c3)ncc2-c2ccoc2)[C@H]2C=C[C@@H]1C2 | 40 |  |  | 
Cc1cc(Nc2ncc(-c3cccnc3)c(N[C@H]3[C@@H](C(N)=O)[C@@H]4C=C[C@H]3C4)n2)ccc1OCCN1CCCC1 | 1100 | 450 | 179 | 
CN1CCN(c2ccc(Nc3ncc(-c4cccc(F)c4)c(N[C@H]4[C@@H](C(N)=O)[C@@H]5C=C[C@H]4C5)n3)cn2)CC1 | 240 | 280 | 26 | 
NC(=O)[C@@H]1[C@H](Nc2nc(Nc3ccc(N4CCOCC4)nc3)ncc2-c2cccc(F)c2)[C@H]2C=C[C@@H]1C2 | 210 | 450 | 25 | 
NC(=O)[C@@H]1[C@H](Nc2nc(Nc3cccc(C(=O)N4CCCC4)c3)ncc2-c2ccncc2)[C@H]2C=C[C@@H]1C2 | 320 | 230 | 10 | 
NC(=O)[C@@H]1[C@H](Nc2nc(Nc3cccc(C(=O)N4CCCC4)c3)ncc2-c2ccsc2)[C@H]2C=C[C@@H]1C2 | 110 | 27 | 5 | 
NC(=O)[C@@H]1[C@H](Nc2nc(Nc3cccc(C(=O)N4CCCC4)c3)ncc2C2CC2)[C@H]2C=C[C@@H]1C2 | 90 |  |  | 
NC(=O)[C@@H]1[C@H](Nc2nc(Nc3ccnc(N4CCOCC4)c3)ncc2-c2cccc(F)c2)[C@H]2C=C[C@@H]1C2 | 40 | 160 | 8 | 
CN1CCN(c2cc(F)cc(Nc3ncc(-c4cccc(F)c4)c(N[C@H]4[C@@H](C(N)=O)[C@@H]5C=C[C@H]4C5)n3)c2)CC1 | 260 | 100 | 18 | 
N#Cc1ccc(-c2cnc(Nc3cccc(C(=O)N4CCCC4)c3)nc2N[C@H]2[C@@H](C(N)=O)[C@@H]3C=C[C@H]2C3)cc1 | 190 |  |  | 
NC(=O)[C@@H]1[C@H](Nc2nc(Nc3cccc(-c4cnco4)c3)ncc2-c2cccc(F)c2)[C@H]2C=C[C@@H]1C2 | 390 | 270 | 25 | 

Continued by falling IC50 (THP-1), values first:

IC50 (THP-1) [nM] | IC50 [5] [nM] | IC50 [6] [nM] | Compound | other results
870 | 24 | 4 | NC(=O)[C@@H]1[C@H](Nc2nc(Nc3cccc(C(=O)N4CCCC4)c3)ncc2-c2cccc(F)c2)[C@H]2C=C[C@@H]1C2 | 
460 |  |  | NC(=O)[C@@H]1[C@H](Nc2nc(Nc3cccc(C(=O)N4CCCC4)c3)ncc2-c2ccc(F)cc2)[C@H]2C=C[C@@H]1C2 | 
320 |  |  | NC(=O)[C@@H]1[C@H](Nc2nc(Nc3cccc(C(=O)N4CCCC4)c3)ncc2-c2cccnc2)[C@H]2C=C[C@@H]1C2 | 
290 | 390 | 37 | NC(=O)[C@@H]1[C@H](Nc2nc(Nc3ccc(-c4cnco4)cc3)ncc2-c2cccc(F)c2)[C@H]2C=C[C@@H]1C2 | 
280 | 2400 | 33 | NC(=O)[C@@H]1[C@H](Nc2nc(Nc3ccnc(N4CCCC4)c3)ncc2-c2cccc(F)c2)[C@H]2C=C[C@@H]1C2 | 
280 | 100 |  | N#Cc1cccc(-c2cnc(Nc3cccc(C(=O)N4CCCC4)c3)nc2N[C@H]2[C@@H](C(N)=O)[C@@H]3C=C[C@H]2C3)c1 | 
250 | 1000 | 12 | NC(=O)[C@@H]1[C@H](Nc2nc(Nc3cc(F)cc(N4CCOCC4)c3)ncc2-c2cccc(F)c2)[C@H]2C=C[C@@H]1C2 | 
220 | 94 | 14 | NC(=O)[C@@H]1[C@H](Nc2nc(Nc3cccc(C(=O)N4CCOCC4)c3)ncc2-c2cccc(F)c2)[C@H]2C=C[C@@H]1C2 | 
130 |  | 11 | NC(=O)[C@@H]1[C@H](Nc2nc(Nc3cccc(C(=O)N4CCCC4)c3)ncc2-c2ccccc2F)[C@H]2C=C[C@@H]1C2 | 
130 | 48 | 5 | CN1CCN(C(=O)c2cccc(Nc3ncc(-c4cccc(F)c4)c(N[C@H]4[C@@H](C(N)=O)[C@@H]5C=C[C@H]4C5)n3)c2)CC1 | 
100 |  |  | NC(=O)[C@@H]1[C@H](Nc2nc(Nc3cccc(C(=O)N4CCCC4)c3)ncc2-c2ccnc(F)c2)[C@H]2C=C[C@@H]1C2 | inhibition in vivo at 75 mg/kg (Mus musculus): 64%; concentration at 1 h [1]: 6820 ng/mL; IC50 (HUVEC [2]): 120 nM; IC50 (HUVEC [3]): 110 nM; IC50 (Blood): 510 nM; IC50 [4]: 110 nM
